Measured values reported in patent publication US6004950A, “2-aminopyridines as inhibitors of cyclooxygenase-2” (Merck Frosst Canada, Inc., priority 1998, dated 1999).
pIC50: −log10 of the molar value. Read-outs that look alike come from different tables or passages of the source.

Legend:
COX-2 [1] = biological target: T1, COX-2 (Homo sapiens, UniProt P35354); test: Whole cell assay for COX-2 using CHO transfected cell line CHO[hCOX-2], inhibition of PGE2 synthesis; format: cell-based; conditions: for IC50: CHO[hCOX-2] cells, 10 μM AA, PGE2, read-out: COX-2 (IC50 mM) CHO
T1 construct: incubation of human whole blood with LPS, which induces COX-2; endogenous in cells; host or cells: heparinized fresh whole blood of human volunteers, incubated with LPS for 24 h
T1 sequence (P35354 18-604): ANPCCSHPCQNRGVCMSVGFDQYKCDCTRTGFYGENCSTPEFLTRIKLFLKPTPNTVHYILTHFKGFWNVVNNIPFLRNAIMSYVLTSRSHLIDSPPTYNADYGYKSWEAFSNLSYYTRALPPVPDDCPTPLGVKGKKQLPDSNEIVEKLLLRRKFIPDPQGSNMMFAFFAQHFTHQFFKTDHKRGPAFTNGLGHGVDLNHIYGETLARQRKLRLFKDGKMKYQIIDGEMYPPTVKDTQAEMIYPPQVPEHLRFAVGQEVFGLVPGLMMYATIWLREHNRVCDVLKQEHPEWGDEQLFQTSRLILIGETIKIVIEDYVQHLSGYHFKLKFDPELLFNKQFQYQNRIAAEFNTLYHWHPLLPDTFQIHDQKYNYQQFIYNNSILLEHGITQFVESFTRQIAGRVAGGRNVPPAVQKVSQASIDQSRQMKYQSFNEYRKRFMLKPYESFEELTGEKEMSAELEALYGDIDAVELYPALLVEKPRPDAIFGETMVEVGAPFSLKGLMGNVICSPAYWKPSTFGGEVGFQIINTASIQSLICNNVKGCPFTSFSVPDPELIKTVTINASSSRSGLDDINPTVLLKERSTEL

COX-2 [2] = biological target: T1, COX-2; test: Human whole blood assay, COX-2 (LPS-induced PGE2 production); format: cell-based; conditions: for IC50: human whole blood, LPS-induced PGE2, 24 h, read-out: COX-2 (IC50 mM) HWB
Description: As well, platelets in whole blood contain a large amount of the COX-1 enzyme. Immediately following blood clotting, platelets are activated through a thrombin-mediated mechanism. This reaction results in the production of thromboxane B2 (TxB2) via activation of COX-1. Thus, the effect of test compounds on TxB2 levels following blood clotting can be examined and used as an index for COX-1 activity. Therefore, the degree of selectivity by the test compound can be determined by measuring the levels of PGE2 after LPS induction (COX-2) and TxB2 following blood clotting (COX-1) in the same assay.
A. COX-2 (LPS-induced PGE2 production)
Fresh blood is collected in heparinized tubes by venipuncture from both male and female volunteers. The subjects have no apparent inflammatory conditions and have not taken any NSAIDs for at least 7 days prior to blood collection. Plasma is immediately obtained from a 2 mL blood aliquot to use as blank (basal levels of PGE2).

COX-1 = COX-1 (Homo sapiens, UniProt P23219); test: Assay of COX-1 activity from U937 cell microsomes; format: biochemical; set-up: Assay of COX-1 Activity from U937 cell microsomes; endogenous in cells; host or cells: U937 cells, 100,000×g microsomal pellet; conditions: for IC50: U937 cell microsomes, PGE2, read-out: COX-1 (IC50 mM) U-937
COX-1, sequence (P23219 24-599): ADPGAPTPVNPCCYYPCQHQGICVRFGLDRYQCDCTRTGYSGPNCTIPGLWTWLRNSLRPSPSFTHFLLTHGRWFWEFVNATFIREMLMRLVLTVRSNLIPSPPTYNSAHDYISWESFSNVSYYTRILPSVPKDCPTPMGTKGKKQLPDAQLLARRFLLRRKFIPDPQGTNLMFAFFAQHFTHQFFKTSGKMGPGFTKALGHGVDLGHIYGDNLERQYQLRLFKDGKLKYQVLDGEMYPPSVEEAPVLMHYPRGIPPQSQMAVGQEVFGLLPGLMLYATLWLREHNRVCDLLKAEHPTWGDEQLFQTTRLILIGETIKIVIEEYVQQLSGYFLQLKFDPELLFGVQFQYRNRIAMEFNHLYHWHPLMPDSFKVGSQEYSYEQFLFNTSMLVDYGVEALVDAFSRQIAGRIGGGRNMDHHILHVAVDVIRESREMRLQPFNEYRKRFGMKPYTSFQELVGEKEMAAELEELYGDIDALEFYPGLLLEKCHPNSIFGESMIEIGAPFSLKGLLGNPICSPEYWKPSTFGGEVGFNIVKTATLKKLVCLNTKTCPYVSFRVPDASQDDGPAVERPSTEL
Description: Assay of COX-1 Activity from U937 cell microsomes
U 937 cells are pelleted by centrifugation at 500×g for 5 min and washed once with phosphate-buffered saline and repelleted. Cells are resuspended in homogenization buffer consisting of 0.1 M Tris-HCl, pH 7.4, 10 mM EDTA, 2 μg/ml leupeptin, 2 μg/ml soybean trypsin inhibitor, 2 μg/ml aprotinin and 1 mM phenyl methyl sulfonyl fluoride. The cell suspension is sonicated 4 times for 10 sec and is centrifuged at 10,000×g for 10 min at 4° C. The supernatant is centrifuged at 100,000×g for 1 hr at 4° C. The 100,000×g microsomal pellet is resuspended in 0.1 M Tris-HCl, pH 7.4, 10 mM EDTA to approximately 7 mg protein/ml and stored at -80° C.
Microsomal preparations are thawed immediately prior to use, subjected to a brief sonication, and then diluted to a protein concentration of 125 μg/ml in 0.1 M Tris-HCl buffer, pH 7.4 containing 10 mM EDTA, 0.5 mM phenol, 1 mM reduced glutathione and 1 μM hematin. Assays are performed in duplicate in a final volume of 250 μl. Initially, 5 μl of DMSO vehicle or drug in DMSO are added to 20 μl of 0.1 M Tris-HCl buffer, pH 7.4 containing 10 mM EDTA in wells of a 96-deepwell polypropylene titre plate. 200 μl of the microsomal preparation are then added and pre-incubated for 15 min at room temperature before addition of 25 μl of […] arachidonic acid in […] Tris-HCl and 10 mM EDTA, pH 7.4. Samples are incubated for 40 min at room temperature and the reaction is stopped by the addition of 25 μl of 1 N HCl. Samples are neutralized with 25 μl of 1 N NaOH prior to quantitation of PGE2 content by radioimmunoassay (Dupont-NEN or Amersham assay kits). Cyclooxygenase activity is defined as the difference between PGE2 levels in samples incubated in the presence of arachidonic acid and ethanol vehicle.
In the assay, inhibition is determined by measuring the amount of prostaglandin E2 (PGE2) synthesized in the presence of arachidonic acid, cyclooxygenase-1 or cyclooxygenase-2 and a putative inhibitor.

| pIC50 (COX-2 [1]) | pIC50 (COX-2 [2]) | SMILES | IC50 (COX-1) | pIC50 (COX-1) | IC50 (COX-2 [1]) | IC50 (COX-2 [2]) |
| --- | --- | --- | --- | --- | --- | --- |
| 7.52 | 6.30 | CS(=O)(=O)c1ccc(-c2cc(C(F)(F)F)cnc2N2CCC[C@H](CO)C2)cc1 (single isomer, unassigned) [Example 14, (-)-3-(4-Methylsulfonyl)phenyl-2-(3-hydroxymethyl)piperidin-1-yl-5-trifluoromethylpyridine] | 0.003 to 0.01 mM |  |  |  |
| 7.52 | 4.58 | CS(=O)(=O)c1ccc(-c2cc(C(F)(F)F)cnc2N2CCC[C@@H](CO)C2)cc1 (single isomer, unassigned) [Example 15, (+)-3-(4-Methylsulfonyl)phenyl-2-(3-hydroxymethyl)piperidin-1-yl-5-trifluoromethylpyridine] | > 0.01 mM |  |  |  |
|  |  | CS(=O)(=O)c1ccc(-c2cc(Cl)cnc2N2CCCCC2)cc1 [Example 3, 5-Chloro-3-(4-methylsulfonyl)phenyl-2-piperidin-1-ylpyridine] | 0.001 to 0.003 mM |  |  |  |
|  |  | CS(=O)(=O)c1ccc(-c2cccnc2N2CCCCC2)cc1 [Example 4, 3-(4-Methylsulfonyl)phenyl-2-piperidin-1-ylpyridine] | > 0.05 mM |  | 0.13 µM | 0.006 mM |
|  |  | CS(=O)(=O)c1ccc(-c2cc(C(F)(F)F)cnc2N2CC=CCC2)cc1 [Example 5, 3-(4-Methylsulfonyl)phenyl-2-(1,2,3,6-tetrahydropyridinyl)-5-trifluoromethylpyridine] | 0.001 to 0.003 mM |  | 0.002 µM | 0.001 mM |
|  |  | CS(=O)(=O)c1ccc(-c2cc(C(F)(F)F)cnc2N2CCCCCC2)cc1 [Example 6, 2-(Homopiperidin-1-yl)-3-(4-methylsulfonyl)phenyl-5-trifluoromethylpyridine] | 0.01 mM |  | 0.004 µM | 0.006 mM |
|  |  | CS(=O)(=O)c1ccc(-c2cc(C(F)(F)F)cnc2N2CCC[C@H]2CO)cc1 [Example 7, 3-(4-Methylsulfonyl)phenyl-2-((2S)-2-hydroxymethyl)pyrrolidin-1-yl-5-trifluoromethylpyridine] | 0.003 to 0.01 mM |  | 0.04 µM | 0.0002 mM |
|  |  | CS(=O)(=O)c1ccc(-c2cc(C(F)(F)F)cnc2N2CCC[C@@H]2CO)cc1 [Example 8, 3-(4-Methylsulfonyl)phenyl-2-((2R)-2-hydroxymethyl)pyrrolidin-1-yl-5-trifluoromethylpyridine] | > 0.01 mM |  | > 5 µM | > 0.033 mM |
|  |  | CS(=O)(=O)c1ccc(-c2cc(Cl)cnc2N2CCC[C@H]2CO)cc1 [Example 9, 5-Chloro-3-(4-methylsulfonyl)phenyl-2-((2S)-2-hydroxymethyl)pyrrolidin-1-ylpyridine] | 0.001 to 0.003 mM |  | 0.03 µM | 0.0001 mM |
|  |  | COC[C@@H]1CCCN1c1ncc(C(F)(F)F)cc1-c1ccc(S(C)(=O)=O)cc1 [Example 10, 3-(4-Methylsulfonyl)phenyl-2-((2S)-2-methoxymethyl)pyrrolidin-1-yl-5-trifluoromethylpyridine] | 0.003 to 0.01 mM |  | 0.09 µM | 0.0031 mM |
|  |  | CC(=O)OC[C@@H]1CCCN1c1ncc(C(F)(F)F)cc1-c1ccc(S(C)(=O)=O)cc1 [Example 11, 3-(4-Methylsulfonyl)phenyl-2-((2S)-2-acetoxymethyl)pyrrolidin-1-yl-5-trifluoromethylpyridine] | > 0.01 mM |  | 0.07 µM | < 0.0004 mM |
|  |  | COC[C@@H]1CCCN1c1ncc(Cl)cc1-c1ccc(S(C)(=O)=O)cc1 [Example 12, 5-Chloro-3-(4-methylsulfonyl)phenyl-2-((2S)-2-methoxymethyl)pyrrolidin-1-ylpyridine] | 0.003 to 0.01 mM |  |  |  |
|  |  | CS(=O)(=O)c1ccc(-c2cc(C(F)(F)F)cnc2N2CCCCC2CO)cc1 (stereo not drawn) [Example 13, 3-(4-Methylsulfonyl)phenyl-2-(2-hydroxymethyl)piperidin-1-yl-5-trifluoromethylpyridine] | 0.01 mM |  | 0.1 µM | 0.0027 mM |
|  |  | CS(=O)(=O)c1ccc(-c2cc(Cl)cnc2N2CCCC(CO)C2)cc1 (stereo not drawn) [Example 16, 5-Chloro-3-(4-methylsulfonyl)phenyl-2-(3-hydroxymethyl)piperidin-1-ylpyridine] | > 0.01 mM |  |  |  |
|  |  | CC1(CO)CCCN(c2ncc(C(F)(F)F)cc2-c2ccc(S(C)(=O)=O)cc2)C1 (stereo not drawn) [Example 17, 3-(4-Methylsulfonyl)phenyl-2-(3-hydroxymethyl-3-methyl)piperidin-1-yl-5-trifluoromethylpyridine] | > 0.01 mM |  | 0.4 µM | 0.0053 mM |
|  |  | CS(=O)(=O)c1ccc(-c2cc(C(F)(F)F)cnc2N2CCCCC(CO)C2)cc1 (stereo not drawn) [Example 18, 3-(4-Methylsulfonyl)phenyl-2-(3-hydroxymethyl)homopiperidin-1-yl-5-trifluoromethylpyridine] | > 0.01 mM |  | 0.08 µM | 0.0234 mM |
|  |  | CS(=O)(=O)c1ccc(-c2cc(C(F)(F)F)cnc2N2CCCCC2CCO)cc1 (stereo not drawn) [Example 19, 3-(4-Methylsulfonyl)phenyl-2-(2-(2-hydroxyethyl))piperidin-1-yl-5-trifluoromethylpyridine] | > 0.01 mM |  | 0.92 µM | 0.0032 mM |
|  |  | CS(=O)(=O)c1ccc(-c2cc(C(F)(F)F)cnc2N2CCC(=O)CC2)cc1 [Example 20, 3-(4-Methylsulfonyl)phenyl-2-(4-oxo)piperidin-1-yl-5-trifluoromethylpyridine] | > 0.01 mM |  | 0.09 µM | 0.0104 mM |
|  |  | CS(=O)(=O)c1ccc(-c2cc(C(F)(F)F)cnc2N2CCCC(=O)C2)cc1 [Example 21, 3-(4-Methylsulfonyl)phenyl-2-(3-oxo)piperidin-1-yl-5-trifluoromethylpyridine] | > 0.01 mM |  | 0.11 µM | 0.0053 mM |
|  |  | CS(=O)(=O)c1ccc(-c2cc(C(F)(F)F)cnc2N2CCC(O)CC2)cc1 [Example 22, 3-(4-Methylsulfonyl)phenyl-2-(4-hydroxy)piperidin-1-yl-5-trifluoromethylpyridine] | > 0.01 mM |  | 0.03 µM | 0.0108 mM |
|  |  | CS(=O)(=O)c1ccc(-c2cc(C(F)(F)F)cnc2N2CCCC(O)C2)cc1 (stereo not drawn) [Example 23, 3-(4-Methylsulfonyl)phenyl-2-(3-hydroxy)piperidin-1-yl-5-trifluoromethylpyridine] |  | < 5.00 | 0.03 µM | 0.0075 mM |

| SMILES | pIC50 (COX-2 [1]) | pIC50 (COX-2 [2]) | IC50 (COX-1) | pIC50 (COX-1) | IC50 (COX-2 [1]) | IC50 (COX-2 [2]) |
| --- | --- | --- | --- | --- | --- | --- |
| CS(=O)(=O)c1ccc(-c2cc(C(F)(F)F)cnc2N2CCCC2)cc1 [Example 1, 3-(4-Methylsulfonyl)phenyl-2-pyrrolidin-1-yl-5-trifluoromethylpyridine] | 7.70 | 5.01 |  | < 5.00 |  |  |
